Test results published in patent publication US7157466B2, “Quinazoline ditosylate salt compounds” (SmithKline Beecham (Cork) Limited, priority 2000, dated 2007).
Read-outs that look alike come from different tables or passages of the source.

Assays:
[1] = test system: gastric tumor (N87) cell line; assay: Methylene blue growth inhibition assay, N87; assay type: cell-based; settings: Homo sapiens, 72 h, read-out: N87 IC50 uM Cell
Experimental: Human breast (BT474), head and neck (HN5) and gastric tumor (N87) cell lines and human foreskin Fibroblasts (HFF) were cultured in low glucose DMEM (Life Technologies 12320-032) containing 10% fetal bovine serum (FBS) at 37° C. in a humidified 10% CO2, 90% air incubator. The SV40 transformed human mammary epithelial cell line HB4a was transfected with either human H-ras cDNA (HB4a r4.2) or the human c-erbB2 cDNA (HB4a c5.2). The HB4a clones were cultured in RPMI containing 10% FBS, insulin (5 μg/ml), hydrocortisone (5 μg/ml), supplemented with the selection agent hygromycin B (50 μg/ml). Cells were harvested using trypsin/EDTA, counted using a haemocytometer, and plated in […] of the appropriate media, at the following densities, in a 96-well tissue culture plate (Falcon 3075): BT474 10,000 cells/well, HN5 3,000 cells/well, N87 10,000 cells/well, HB4a c5.2 3,000 cells/well, HB4a r4.2 3,000 cells/well, HFF 2500 cells/well. […] Medium containing 0.6% DMSO was added to control wells. Compounds diluted in DMEM were added to all cell lines, including the HB4a r4.2 and HB4a c5.2 cell lines. The final concentration of DMSO in all wells was 0.3%. Cells were incubated at 37° C., 10% CO2 for 3 days. Medium was removed by aspiration. […] Optical density at 620 nm was measured on a microplate reader. Percent inhibition of cell growth was calculated relative to vehicle treated control wells. […]

[2] = test system: head and neck (HN5) cell line; assay: Methylene blue growth inhibition assay, HN5; assay type: cell-based; settings: Homo sapiens, read-out: HN5 IC50 uM Cell
Experimental: Human breast (BT474), head and neck (HN5) and gastric tumor (N87) cell lines and human foreskin Fibroblasts (HFF) were cultured in low glucose DMEM (Life Technologies 12320-032) containing 10% fetal bovine serum (FBS) at 37° C. in a humidified 10% CO2, 90% air incubator. The SV40 transformed human mammary epithelial cell line HB4a was transfected with either human H-ras cDNA (HB4a r4.2) or the human c-erbB2 cDNA (HB4a c5.2). The HB4a clones were cultured in RPMI containing 10% FBS, insulin (5 μg/ml), hydrocortisone (5 μg/ml), supplemented with the selection agent hygromycin B (50 μg/ml). Cells were harvested using trypsin/EDTA, counted using a haemocytometer, and plated in […] of the appropriate media, at the following densities, in a 96-well tissue culture plate (Falcon 3075): BT474 10,000 cells/well, HN5 3,000 cells/well, N87 10,000 cells/well, HB4a c5.2 3,000 cells/well, HB4a r4.2 3,000 cells/well, HFF 2500 cells/well. The next day, compounds were diluted in DMEM containing […] gentamicin, at twice the final required concentration, from 10 mM stock solutions in DMSO. […] of these dilutions were added to the […] of media currently on the cell plates. Medium containing 0.6% DMSO was added to control wells. Compounds diluted in DMEM were added to all cell lines, including the HB4a r4.2 and HB4a c5.2 cell lines. The final concentration of DMSO in all wells was 0.3%. Cells were incubated at 37° C., 10% CO2 for 3 days. Medium was removed by aspiration. Cell biomass was estimated by staining cells with 100 μl per well methylene blue (Sigma M9140, 0.5% in 50:50 ethanol:water), and incubation at room temperature for at least 30 minutes. Stain was removed, and the plates rinsed under a gentle stream of water, and air-dried. To release stain from the cells 100 μl of solubilization solution was added (1% N-lauroyl sarcosine, Sodium salt, Sigma L5125, in PBS), and plates were shaken gently for about 30 minutes. Optical density at 620 nm was measured on a microplate reader. Percent inhibition of cell growth was calculated relative to vehicle treated control wells. […]

[3] = Slurry equilibration, relative physical stability of anhydrate and monohydrate crystal forms; settings: 25° C.; for Equilibrium Form: 1:1 anhydrate/monohydrate slurry in MeOH/H2O
[4] = Moisture sorption testing; assay type: physicochemical; settings: humidities e.g. 20–75% relative humidity (RH)
Experimental: Approximately 12 mg of N-{3-Chloro-4-[(3-fluorobenzyl) oxy]phenyl}-6-[5-({[2-(methanesulphonyl)ethyl]amino}methyl)-2-furyl]-4-quinazolinamine ditosylate monohydrate salt prepared according to Example 10 was weighed into a sample pan of a moisture sorption apparatus (model number SGA-100, made by VTI). The sample was dried at 60° C. under a nitrogen stream until the weight loss was less than 0.015% in 5 minutes. The relative humidity (RH) was then increased (adsorption) to 5, 15, 25, 35, 45, 55, 65, 75, 85 and 95%—at each step, equilibrium was defined as a weight change of less than 0.015% in 5 minutes. The relative humidity was then decreased (desorption) to 90, 80, 70, 60, 50, 40, 30, and 20% with the same equilibrium condition. The sorption curve (y-axis: Weight—% change vs. x-axis: % RH) is depicted in FIG. 3(a).
Approximately 15 mg of N-{3-Chloro-4-[(3-fluorobenzyl) oxy]phenyl}-6-[5-({[2-(methanesulphonyl)ethyl]amino}methyl)-2-furyl]-4-quinazolinamine di-HCl salt was weighed into a sample pan of a moisture sorption apparatus (model number SGA-100, made by VTI). The sample was dried at 60° C. under a nitrogen stream until the weight loss was less than 0.015% in 5 minutes. The relative humidity was then increased (adsorption) to 5, 15, 25, 35, 45, 55, 65, 75, 85 and 95%—at each step, equilibrium was defined as a weight change of less than 0.015% in 5 minutes. […]

[5] = 72 h, HN5 cells, 3 days, methylene blue

CS(=O)(=O)CCNCc1ccc(-c2ccc3ncnc(Nc4ccc(OCc5cccc(F)c5)c(Cl)c4)c3c2)o1 [Example 8, N-{3-Chloro-4-[(3-fluorobenzyl)oxy]phenyl}-6-[5-({[2-(methanesulphonyl)ethyl]amino}methyl)-2-furyl]-4-quinazolinamine ditosylate anhydrate]
IC50 [1]: < 5 µM
IC50 ([2]; HN5, 72 h): < 5 µM

CS(=O)(=O)CCNCc1ccc(-c2ccc3ncnc(Nc4ccc(OCc5cccc(F)c5)c(Cl)c4)c3c2)o1 [Example 10, N-{3-Chloro-4-[(3-fluorobenzyl)oxy]phenyl}-6-[5-({[2-(methanesulphonyl)ethyl]amino}methyl)-2-furyl]-4-quinazolinamine ditosylate monohydrate]
RH at which the monohydrate becomes the thermodynamically stable form ([3]; slurry equilibration, remains stable up through 100% RH): 7–15 % RH

CS(=O)(=O)CCNCc1ccc(-c2ccc3ncnc(Nc4ccc(OCc5cccc(F)c5)c(Br)c4)c3c2)o1 [Example 12, (4-(3-Fluoro-benzyloxy)-3-bromophenyl)-(6-(5-((2-methanesulphonyl-ethylamino)-methyl)-furan-2-yl)quinazolin-4-yl)-amine Ditosylate]
IC50 [2, 5]: < 5 µM

CS(=O)(=O)CCNCc1nc(-c2ccc3ncnc(Nc4ccc(OCc5cccc(F)c5)c(Cl)c4)c3c2)cs1 [Example 13, (4-(3-Fluoro-benzyloxy)-3-chlorophenyl)-(6-(2-((2-methanesulphonyl-ethylamino)-methyl)-thiazol-4-yl)quinazolin-4-yl)-amine ditosylate]
IC50 [2, 5]: < 5 µM

CS(=O)(=O)CCNCc1ccc(-c2ccc3ncnc(Nc4ccc(OCc5cccc(F)c5)c(Cl)c4)c3c2)o1 [N-{3-Chloro-4-[(3-fluorobenzyl)oxy]phenyl}-6-[5-({[2-(methanesulphonyl)ethyl]amino}methyl)-2-furyl]-4-quinazolinamine ditosylate]
Equilibrium Form ([3]; water volume 0%, RH 0%): Anhydrate
Equilibrium Form ([3]; water volume 2%, RH 7%): Anhydrate
Equilibrium Form ([3]; water volume 5%, RH 15%): Monohydrate
Equilibrium Form ([3]; water volume 10%, RH 26%): Monohydrate
Equilibrium Form ([3]; water volume 20%, RH 43%): Monohydrate
Equilibrium Form ([3]; water volume 40%, RH 66%): Monohydrate
Equilibrium Form ([3]; water volume 60%, RH 80%): Monohydrate
Equilibrium Form ([3]; water volume 80%, RH 91%): Monohydrate
Equilibrium Form ([3]; water volume 90%, RH 95%): Monohydrate
Equilibrium Form ([3]; water volume 100%, RH 100%): Monohydrate

CS(=O)(=O)CCNCc1ccc(-c2ccc3ncnc(Nc4ccc(OCc5cccc(F)c5)c(Cl)c4)c3c2)o1.Cl.Cl [di-HCl salt, N-{3-Chloro-4-[(3-fluorobenzyl)oxy]phenyl}-6-[5-({[2-(methanesulphonyl)ethyl]amino}methyl)-2-furyl]-4-quinazolinamine di-HCl salt]
Water sorption [4]: sorbs very large amounts of water
